Measured values published in article PMC6421522, “Designing Dual Inhibitors of Anaplastic Lymphoma Kinase (ALK) and Bromodomain-4 (BRD4) by Tuning Kinase Selectivity” (Journal of Medicinal Chemistry, 2019).

How the values were obtained:
PLK-1 = target: T1, PLK-1 (Homo sapiens, UniProt P53350); assay: PLK-1 Z-LYTE activity assay (SelectScreen); format: biochemical; conditions: for fold decrease of PLK-1 activity/potency: relative to starting compound BI-2536
T1 construct: purchased Thermo Fisher Scientific (SelectScreen service)
T1 sequence (P53350 whole entry): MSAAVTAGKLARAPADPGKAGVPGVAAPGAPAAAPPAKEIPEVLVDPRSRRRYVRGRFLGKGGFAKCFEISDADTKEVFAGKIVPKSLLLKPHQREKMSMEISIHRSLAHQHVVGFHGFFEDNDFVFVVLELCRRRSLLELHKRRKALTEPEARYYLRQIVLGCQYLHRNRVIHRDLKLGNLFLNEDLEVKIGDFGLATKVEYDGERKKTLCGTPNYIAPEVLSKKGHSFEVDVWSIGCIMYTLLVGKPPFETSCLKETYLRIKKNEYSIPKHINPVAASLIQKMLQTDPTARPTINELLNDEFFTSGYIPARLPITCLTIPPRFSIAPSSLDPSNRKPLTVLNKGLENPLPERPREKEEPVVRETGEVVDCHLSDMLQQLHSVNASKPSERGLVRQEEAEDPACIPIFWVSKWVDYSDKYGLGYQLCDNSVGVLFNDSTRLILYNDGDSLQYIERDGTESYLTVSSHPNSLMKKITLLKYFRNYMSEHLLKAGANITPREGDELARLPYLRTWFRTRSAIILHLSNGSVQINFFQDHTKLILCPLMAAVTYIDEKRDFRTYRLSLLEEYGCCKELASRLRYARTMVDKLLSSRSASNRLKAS

ALK WT = ALK WT (Homo sapiens, UniProt Q9UM73); assay: Biochemical ALK WT IC50; format: binding; conditions: geometric mean
ALK WT, sequence (Q9UM73 19-1620): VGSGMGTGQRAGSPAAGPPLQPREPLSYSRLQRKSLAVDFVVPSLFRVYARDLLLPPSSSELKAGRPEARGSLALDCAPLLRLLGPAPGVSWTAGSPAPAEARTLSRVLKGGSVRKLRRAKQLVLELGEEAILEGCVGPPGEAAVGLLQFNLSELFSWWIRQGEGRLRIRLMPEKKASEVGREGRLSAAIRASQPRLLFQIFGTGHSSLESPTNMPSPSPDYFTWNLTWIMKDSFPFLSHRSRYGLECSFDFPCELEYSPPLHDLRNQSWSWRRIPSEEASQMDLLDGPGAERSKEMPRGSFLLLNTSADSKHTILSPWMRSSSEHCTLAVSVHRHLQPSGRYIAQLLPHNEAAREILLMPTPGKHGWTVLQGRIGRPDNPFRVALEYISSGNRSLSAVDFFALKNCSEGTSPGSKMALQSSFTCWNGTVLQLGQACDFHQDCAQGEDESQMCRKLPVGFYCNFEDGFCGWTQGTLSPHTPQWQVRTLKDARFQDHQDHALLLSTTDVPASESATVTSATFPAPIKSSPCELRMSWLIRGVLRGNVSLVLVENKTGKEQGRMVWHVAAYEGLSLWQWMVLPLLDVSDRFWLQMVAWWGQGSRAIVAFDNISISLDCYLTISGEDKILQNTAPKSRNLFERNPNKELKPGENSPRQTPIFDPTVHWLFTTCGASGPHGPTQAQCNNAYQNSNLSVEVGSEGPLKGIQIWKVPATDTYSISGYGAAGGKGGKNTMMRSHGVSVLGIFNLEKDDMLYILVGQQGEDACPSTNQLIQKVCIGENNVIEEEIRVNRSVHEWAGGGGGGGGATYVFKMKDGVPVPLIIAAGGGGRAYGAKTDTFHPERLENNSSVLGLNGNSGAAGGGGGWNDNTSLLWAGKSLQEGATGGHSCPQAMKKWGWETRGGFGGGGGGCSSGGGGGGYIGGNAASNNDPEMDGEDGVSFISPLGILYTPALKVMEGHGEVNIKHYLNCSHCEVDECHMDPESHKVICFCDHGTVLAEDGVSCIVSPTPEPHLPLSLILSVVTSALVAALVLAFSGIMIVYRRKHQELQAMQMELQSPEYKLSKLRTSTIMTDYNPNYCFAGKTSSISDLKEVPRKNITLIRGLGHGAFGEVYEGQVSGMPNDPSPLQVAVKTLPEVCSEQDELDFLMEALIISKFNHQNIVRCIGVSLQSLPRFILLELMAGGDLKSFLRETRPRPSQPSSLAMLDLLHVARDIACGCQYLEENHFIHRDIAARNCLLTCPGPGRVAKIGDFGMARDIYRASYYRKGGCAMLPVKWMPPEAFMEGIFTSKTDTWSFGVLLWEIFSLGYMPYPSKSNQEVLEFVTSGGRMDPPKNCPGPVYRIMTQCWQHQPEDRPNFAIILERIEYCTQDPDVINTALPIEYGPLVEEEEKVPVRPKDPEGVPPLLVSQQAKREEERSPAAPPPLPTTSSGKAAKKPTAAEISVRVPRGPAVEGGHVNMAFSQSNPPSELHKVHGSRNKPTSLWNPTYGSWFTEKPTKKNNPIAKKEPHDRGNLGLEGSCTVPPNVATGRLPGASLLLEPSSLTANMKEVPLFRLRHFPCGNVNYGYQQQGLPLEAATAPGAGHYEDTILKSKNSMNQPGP

ALK^F1174L = target: T2, ALK^F1174L (Homo sapiens, UniProt Q9UM73, F1174L); assay: LanthaScreen Eu kinase binding assay
T2 construct: purchased Carna Biosciences
T2 sequence (Q9UM73 19-1620 F1174L): as the sequence (Q9UM73 19-1620) above, with F1156L counted along it

HeLa cells = assay: Mitotic arrest and mitotic markers in HeLa cells (Western blot); format: cell-based; conditions: HeLa cells, Western blot
Procedure: Protein extracts of cells were prepared by lysis in radioimmunoprecipitation assay buffer (Sigma) supplemented with protease inhibitors (complete protease inhibitor cocktail, Roche). Protein extracts (25 μg) were separated by sodium dodecyl sulfate-polyacrylamide gel electrophoresis and transferred onto poly(vinylidene difluoride) membranes using the Trans-Blot Turbo transfer system (BioRad). After blocking with 5% bovine serum albumin in PBS with 0.1% Tween-20 for 30 min, the membrane was incubated with primary antibodies for 1 h at room temperature. Horseradish peroxidase-linked secondary antibodies were incubated 30 min at room temperature followed by enhanced chemiluminescence (ECL) detection (ECL Western blot substrate, Pierce).
Primary antibodies were obtained from the following sources: PLK-1 (05-844) and phosphohistone H3 (Ser10) (05806) from Millipore; pPlk1-T210 (5472) from Cell Signaling; pPlk1-S137 (21738) from Abcam; and cyclin B1 (GNS1) and β-actin (A2228) from Sigma-Aldrich served as loading control.

Compound | fold decrease of PLK-1 activity/potency (PLK-1) | other results
CC[C@@H]1C(=O)N(C)c2cnc(Nc3ccc(C4CCN(C)CC4)cc3OC)nc2N1C1CCCC1 [16a, (R)-8-Cyclopentyl-7-ethyl-2-((2-methoxy-4-(1-methylpiperidin-4-yl)phenyl)amino)-5-methyl-7,8-dihydropteridin-6(5H)-one] | four-fold | 
CCOc1cc(C(=O)NC2CCN(C)CC2)ccc1Nc1ncc2c(n1)N(Cc1cccc(Br)c1)[C@H](CC)C(=O)N2C [16f, (R)-4-((8-(3-Bromobenzyl)-7-ethyl-5-methyl-6-oxo-5,6,7,8-tetrahydropteridin-2-yl)amino)-3-ethoxy-N-(1-methylpiperidin-4-yl)benzamide] | 30–40 fold | 
CCOc1cc(C2CCN(C)CC2)ccc1Nc1ncc2c(n1)N(Cc1sccc1C)[C@H](CC)C(=O)N2C [16j, (R)-2-((2-Ethoxy-4-(1-methylpiperidin-4-yl)phenyl)amino)-7-ethyl-5-methyl-8-((3-methylthiophen-2-yl)methyl)-7,8-dihydropteridin-6(5H)-one] |  | IC50 (ALK WT): 89 ± 4 nM
CCOc1cc(C(=O)NC2CCN(C)CC2)ccc1Nc1ncc2c(n1)N(C1CCCC1)CC(=O)N2C [16e, 4-((8-Cyclopentyl-5-methyl-6-oxo-5,6,7,8-tetrahydropteridin-2-yl)amino)-3-ethoxy-N-(1-methylpiperidin-4-yl)benzamide] |  | fold reduction of ALK^F1174L potency (ALK^F1174L; on removal of the (R)-Et group): 3 fold
CC[C@@H]1C(=O)N(C)c2cnc(Nc3ccc(C(=O)NC4CCN(C)CC4)cc3OC)nc2N1C1CCCC1 [BI-2536, reference compound] |  | concentration inducing mitotic arrest and increased PLK-1, cyclin B1, phosphohistone H3 (HeLa cells): ≤ 50 nM
CCOc1cc(C(=O)NC2CCN(C)CC2)ccc1Nc1ncc2c(n1)N(Cc1ccccc1)[C@H](CC)C(=O)N2C [16g, (R)-4-((8-Benzyl-7-ethyl-5-methyl-6-oxo-5,6,7,8-tetrahydropteridin-2-yl)amino)-3-ethoxy-N-(1-methylpiperidin-4-yl)benzamide] | 30–40 fold | 

More lines, main results first:

fold decrease of PLK-1 activity/potency (PLK-1) | Compound | other results
> 700 fold | CCOc1cc(C2CCN(C)CC2)ccc1Nc1ncc2c(n1)N(Cc1cccc(C#N)c1)[C@H](CC)C(=O)N2C [23b, (R)-3-((2-((2-Ethoxy-4-(1-methylpiperidin-4-yl)phenyl)amino)-7-ethyl-5-methyl-6-oxo-6,7-dihydropteridin-8(5H)-yl)methyl)benzonitrile] | ALK selectivity over PLK-1 (PLK-1; biochemical IC50s ALK^F1174L vs PLK-1): 5 fold
100–200 fold | CCOc1cc(C2CCN(C)CC2)ccc1Nc1ncc2c(n1)N(Cc1cccc(Br)c1)[C@H](CC)C(=O)N2C [16h, (R)-8-(3-Bromobenzyl)-2-((2-ethoxy-4-(1-methylpiperidin-4-yl)phenyl)amino)-7-ethyl-5-methyl-7,8-dihydropteridin-6(5H)-one] | 
100–200 fold | CCOc1cc(C2CCN(C)CC2)ccc1Nc1ncc2c(n1)N(Cc1ccccc1)[C@H](CC)C(=O)N2C [16i, (R)-8-Benzyl-2-((2-ethoxy-4-(1-methylpiperidin-4-yl)phenyl)amino)-7-ethyl-5-methyl-7,8-dihydropteridin-6(5H)-one] | fold increase in ALK^F1174L potency (ALK^F1174L): 2 fold; IC50 (ALK WT): 120 ± 11 nM
